According to US20230121313A1 (priority 2019, published 2023):

Columns and labels:
adult subjects with TRD = conditions: in vivo
Method: Blood pressure and pulse/heart rate measurements were assessed supine with a completely automated device. Manual techniques were used only if an automated device is not available. Blood pressure and pulse/heart rate measurements were preceded by at least 5 minutes of rest in a quiet setting without distractions (e.g., television, cell phones).
Descriptive statistics of temperature, pulse/heart rate, respiratory rate, pulse oximetry, and blood pressure (systolic and diastolic) (supine) values and changes from baseline were summarized at each scheduled time point. The percentage of subjects with values beyond clinically important limits were summarized.

[1] = system: subjects with MDD at imminent risk for suicide; conditions: 84 mg
From the text: Among 68 randomized subjects, 66 were included in the safety analysis set (defined as receiving at least one dose of study medication in the double-blind phase). […] All safety subjects (N=66) were included in the intent-to-treat (ITT) analysis set (defined as receiving at least one dose of study medication during the double-blind phase and having both the baseline and the Day 1, 4-hour postdose evaluation for the MADRS total score). Forty-nine subjects were included in the safety (FU) analysis set (defined as all subjects who have at least 1 visit during the follow up phase).

[2] = human, in vivo, other: intranasal

CN[C@]1(c2ccccc2Cl)CCCCC1=O [esketamine, (S)-2-(2-chlorophenyl)-2-(methylamino)cyclohexanone]
Maximum mean increase in diastolic BP (across all dosing days) (adult subjects with TRD): 8.1 | Transient blood pressure increases: returned to normal range at (adult subjects with TRD): 90 min | Transient blood pressure increases: time of peak post dose (adult subjects with TRD): approximately 40 minutes | Serious TEAE: Agitation, subjects (%) ([1]; double-blind phase, N = 35): 2.9% | Serious TEAE: Depressive symptom, subjects (%) ([1]; double-blind phase, N = 35): 2.9% | Serious TEAE: Psychiatric disorders, subjects (%) ([1]; double-blind phase, N = 35): 11.4% | Serious TEAE: Suicidal ideation, subjects (%) ([1]; double-blind phase, N = 35): 5.7% | Subjects with 1 or more serious TEAE (%) ([1]; double-blind phase, N = 35): 11.4% | Subjects with TEAE leading to drug withdrawn (%) ([1]; double-blind phase, N = 35): 14.3% | TEAE Acne, subjects (%) ([1]; double-blind phase, N = 35): (5.7%) | TEAE Agitation, subjects (%) ([1]; double-blind phase, N = 35): (8.6%) | TEAE Anxiety, subjects (%) ([1]; double-blind phase, N = 35): (17.1%) | TEAE Blood pressure increased, subjects (%) ([1]; double-blind phase, N = 35): (5.7%) | TEAE Diarrhea, subjects (%) ([1]; double-blind phase, N = 35): (8.6%) | TEAE Diplopia, subjects (%) ([1]; double-blind phase, N = 35): (5.7%) | TEAE Dissociation, subjects (%) ([1]; double-blind phase, N = 35): (31.4%) | TEAE Dizziness postural, subjects (%) ([1]; double-blind phase, N = 35): (5.7%) | TEAE Dizziness, subjects (%) ([1]; double-blind phase, N = 35): (34.3%) | TEAE Dry mouth, subjects (%) ([1]; double-blind phase, N = 35): (8.6%) | TEAE Dysgeusia, subjects (%) ([1]; double-blind phase, N = 35): (31.4%) | TEAE Ear and labyrinth disorders, subjects (%) ([1]; double-blind phase, N = 35): (25.7%) | TEAE Euphoric mood, subjects (%) ([1]; double-blind phase, N = 35): (11.4%) | TEAE Eye disorders, subjects (%) ([1]; double-blind phase, N = 35): (20.0%) | TEAE Fatigue, subjects (%) ([1]; double-blind phase, N = 35): (5.7%) | TEAE Feeling abnormal, subjects (%) ([1]; double-blind phase, N = 35): (8.6%) | TEAE Feeling cold, subjects (%) ([1]; double-blind phase, N = 35): (5.7%) | TEAE Flatulence, subjects (%) ([1]; double-blind phase, N = 35): (2.9%) | TEAE Gastrointestinal disorders, subjects (%) ([1]; double-blind phase, N = 35): (54.3%) | TEAE General disorders and administration site conditions, subjects (%) ([1]; double-blind phase, N = 35): (28.6%) | TEAE Headache, subjects (%) ([1]; double-blind phase, N = 35): (31.4%) | TEAE Hyperacusis, subjects (%) ([1]; double-blind phase, N = 35): (5.7%) | TEAE Hyperhidrosis, subjects (%) ([1]; double-blind phase, N = 35): (5.7%) | TEAE Hypoesthesia oral, subjects (%) ([1]; double-blind phase, N = 35): (5.7%) | TEAE Hypoesthesia, subjects (%) ([1]; double-blind phase, N = 35): (8.6%) | TEAE Infections and infestations, subjects (%) ([1]; double-blind phase, N = 35): (2.9%) | TEAE Insomnia, subjects (%) ([1]; double-blind phase, N = 35): (8.6%) | TEAE Investigations, subjects (%) ([1]; double-blind phase, N = 35): (14.3%) | TEAE Nasal congestion, subjects (%) ([1]; double-blind phase, N = 35): (2.9%) | TEAE Nasal discomfort, subjects (%) ([1]; double-blind phase, N = 35): (8.6%) | TEAE Nausea, subjects (%) ([1]; double-blind phase, N = 35): (37.1%) | TEAE Nervous system disorders, subjects (%) ([1]; double-blind phase, N = 35): (71.4%) | TEAE Oropharyngeal pain, subjects (%) ([1]; double-blind phase, N = 35): (5.7%) | TEAE Paresthesia oral, subjects (%) ([1]; double-blind phase, N = 35): (5.7%) | TEAE Paresthesia, subjects (%) ([1]; double-blind phase, N = 35): (17.1%) | TEAE Pharyngeal hypoesthesia, subjects (%) ([1]; double-blind phase, N = 35): (5.7%) | TEAE Psychiatric disorders, subjects (%) ([1]; double-blind phase, N = 35): (57.1%) | TEAE Rash, subjects (%) ([1]; double-blind phase, N = 35): (2.9%) | TEAE Renal and urinary disorders, subjects (%) ([1]; double-blind phase, N = 35): (2.9%) | TEAE Respiratory, thoracic and mediastinal disorders, subjects (%) ([1]; double-blind phase, N = 35): (25.7%) | TEAE Sedation, subjects (%) ([1]; double-blind phase, N = 35): (17.1%) | TEAE Skin and subcutaneous tissue disorders, subjects (%) ([1]; double-blind phase, N = 35): (14.3%) | TEAE Somnolence, subjects (%) ([1]; double-blind phase, N = 35): (11.4%) | TEAE Suicidal ideation, subjects (%) ([1]; double-blind phase, N = 35): (5.7%) | TEAE Throat irritation, subjects (%) ([1]; double-blind phase, N = 35): (8.6%) | TEAE Tinnitus, subjects (%) ([1]; double-blind phase, N = 35): (5.7%) | TEAE Vertigo, subjects (%) ([1]; double-blind phase, N = 35): (11.4%) | TEAE Vision blurred, subjects (%) ([1]; double-blind phase, N = 35): (8.6%) | TEAE Vomiting, subjects (%) ([1]; double-blind phase, N = 35): (20.0%) | TEAE Weight increased, subjects (%) ([1]; double-blind phase, N = 35): (5.7%) | TEAE leading to study discontinuation: Aggression, subjects (%) ([1]; double-blind phase, N = 35): 2.9% | TEAE leading to study discontinuation: Agitation, subjects (%) ([1]; double-blind phase, N = 35): 2.9% | TEAE leading to study discontinuation: Cardiac disorders, subjects (%) ([1]; double-blind phase, N = 35): 2.9% | TEAE leading to study discontinuation: Dizziness, subjects (%) ([1]; double-blind phase, N = 35): 2.9% | TEAE leading to study discontinuation: Dysgeusia, subjects (%) ([1]; double-blind phase, N = 35): 2.9% | TEAE leading to study discontinuation: Dyspnea, subjects (%) ([1]; double-blind phase, N = 35): 2.9% | TEAE leading to study discontinuation: Gastrointestinal disorders, subjects (%) ([1]; double-blind phase, N = 35): 2.9% | TEAE leading to study discontinuation: Nausea, subjects (%) ([1]; double-blind phase, N = 35): 2.9% | TEAE leading to study discontinuation: Nervous system disorders, subjects (%) ([1]; double-blind phase, N = 35): 5.7% | TEAE leading to study discontinuation: Psychiatric disorders, subjects (%) ([1]; double-blind phase, N = 35): 5.7% | TEAE leading to study discontinuation: Respiratory, thoracic and mediastinal disorders, subjects (%) ([1]; double-blind phase, N = 35): 2.9% | TEAE leading to study discontinuation: Ventricular extrasystoles, subjects (%) ([1]; double-blind phase, N = 35): 2.9% | Total no. subjects with TEAE leading to study discontinuation (%) ([1]; double-blind phase, N = 35): 14.3% | Subjects with possibly related TEAE (%) ([1]; double-blind phase, N = 35, possible, probable, very likely): 82.9% | AE Abdominal pain, subjects (%) ([1]; follow up phase, N = 27): (3.7%) | AE Abdominal tenderness, subjects (%) ([1]; follow up phase, N = 27): (3.7%) | AE Back pain, subjects (%) ([1]; follow up phase, N = 27): (3.7%) | AE Cogwheel rigidity, subjects (%) ([1]; follow up phase, N = 27): (3.7%) | AE Contusion, subjects (%) ([1]; follow up phase, N = 27): (3.7%) | AE Depression, subjects (%) ([1]; follow up phase, N = 27): (3.7%) | AE Diarrhea, subjects (%) ([1]; follow up phase, N = 27): (3.7%) | AE Dizziness, subjects (%) ([1]; follow up phase, N = 27): (3.7%) | AE Dry mouth, subjects (%) ([1]; follow up phase, N = 27): (7.4%) | AE Dysgeusia, subjects (%) ([1]; follow up phase, N = 27): (3.7%) | AE Ear infection, subjects (%) ([1]; follow up phase, N = 27): (3.7%) | AE Epistaxis, subjects (%) ([1]; follow up phase, N = 27): (3.7%) | AE Flank pain, subjects (%) ([1]; follow up phase, N = 27): (3.7%) | AE Gastrointestinal disorders, subjects (%) ([1]; follow up phase, N = 27): (22.2%) | AE Headache, subjects (%) ([1]; follow up phase, N = 27): (7.4%) | AE Infections and infestations, subjects (%) ([1]; follow up phase, N = 27): (11.1%) | AE Injury, poisoning and procedural complications, subjects (%) ([1]; follow up phase, N = 27): (7.4%) | AE Insomnia, subjects (%) ([1]; follow up phase, N = 27): (11.1%) | AE Intentional self-injury, subjects (%) ([1]; follow up phase, N = 27): (3.7%) | AE Loss of consciousness, subjects (%) ([1]; follow up phase, N = 27): (3.7%) | AE Migraine, subjects (%) ([1]; follow up phase, N = 27): (3.7%) | AE Musculoskeletal and connective tissue disorders, subjects (%) ([1]; follow up phase, N = 27): (7.4%) | AE Musculoskeletal chest pain, subjects (%) ([1]; follow up phase, N = 27): (3.7%) | AE Musculoskeletal pain, subjects (%) ([1]; follow up phase, N = 27): (3.7%) | AE Nasal congestion, subjects (%) ([1]; follow up phase, N = 27): (3.7%) | AE Nasopharyngitis, subjects (%) ([1]; follow up phase, N = 27): (3.7%) | AE Neck pain, subjects (%) ([1]; follow up phase, N = 27): (3.7%) | AE Nervous system disorders, subjects (%) ([1]; follow up phase, N = 27): (22.2%) | AE Night sweats, subjects (%) ([1]; follow up phase, N = 27): (3.7%) | AE Pelvic pain, subjects (%) ([1]; follow up phase, N = 27): (3.7%) | AE Pharyngitis, subjects (%) ([1]; follow up phase, N = 27): (7.4%) | AE Psychiatric disorders, subjects (%) ([1]; follow up phase, N = 27): (18.5%) | AE Reproductive system and breast disorders, subjects (%) ([1]; follow up phase, N = 27): (3.7%) | AE Respiratory, thoracic and mediastinal disorders, subjects (%) ([1]; follow up phase, N = 27): (7.4%) | AE Restlessness, subjects (%) ([1]; follow up phase, N = 27): (3.7%) | AE Road traffic accident, subjects (%) ([1]; follow up phase, N = 27): (3.7%) | AE Sedation, subjects (%) ([1]; follow up phase, N = 27): (3.7%) | AE Skin and subcutaneous tissue disorders, subjects (%) ([1]; follow up phase, N = 27): (3.7%) | AE Suicidal ideation, subjects (%) ([1]; follow up phase, N = 27): (3.7%) | AE Tremor, subjects (%) ([1]; follow up phase, N = 27): (7.4%) | AE Upper respiratory tract infection, subjects (%) ([1]; follow up phase, N = 27): (3.7%) | AE Vomiting, subjects (%) ([1]; follow up phase, N = 27): (3.7%) | AE Vulvovaginal mycotic infection, subjects (%) ([1]; follow up phase, N = 27): (3.7%) | Serious AE: Psychiatric disorders, subjects (%) ([1]; follow up phase, N = 27): 3.7% | Serious AE: Suicidal ideation, subjects (%) ([1]; follow up phase, N = 27): 3.7% | Total no. subjects with a serious adverse event (%) ([1]; follow up phase, N = 27): 3.7% | Total no. subjects with adverse events (%) ([1]; follow up phase, N = 27): (48.1%) | Subjects who discontinued from the double-blind phase due to adverse events [1, 2]: 5 subjects | Subjects with at least one TEAE [1, 2]: 94.3% | Subjects with at least one adverse event [1, 2]: 48.1% | TEAE dissociation, % of subjects [1, 2]: 31.4% | TEAE dizziness, % of subjects [1, 2]: 34.3% | TEAE dysgeusia, % of subjects [1, 2]: 31.4% | TEAE headache, % of subjects [1, 2]: 31.4% | TEAE nausea, % of subjects [1, 2]: 37.1% | TEAE vomiting, % of subjects [1, 2]: 20.0% | Subjects with a serious adverse event ([1]; human, in vivo, other: intranasal, 56 day): 1
